Reference: US10421765B2, “Tetrahydropyrido[4,3-d]pyrimidine inhibitors of ATR kinase” (Board of Regents, The University of Texas System, priority 2017, dated 2019)
Like-named read-outs stand apart in the source and are kept apart here.

What was measured:
[1] = target: ATR/ATRIP complex (Homo sapiens (Human), UniProt Q13535); test: ATR/ATRIP enzymatic assay (Caliper-based); assay type: biochemical; conditions: FAM-labeled RAD17 peptide, ATP
Outline: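 FLAG-TEV-ATR/His6-ATRIP co-expressed in HEK293 and anti-FLAG purified. Compound preincubated 30 min at 28 °C with enzyme (2x solution 4 nM), then FAM-RAD17 peptide (2x solution 10 uM, 2 μM ATP) added for 6 h at 28 °C; HEPES pH 8, 10 mM MnCl2. Caliper conversion read-out, IC50 from four-parameter fit.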

[2] = test system: ATR-driven phosphorylation of Chk1 kinase at Serine 345 in HT-29 colorectal adenocarcinoma cells; test: pCHK1 cellular assay (CHK1 p-Ser345 AlphaScreen SureFire); assay type: cell-based; conditions: 4-nitroquinoline N-oxide 12 uM, read-out: Cell IC50 (pCHK1 IC50 values)
Outline: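 HT-29 cells seeded overnight, treated with 1:3 serially diluted compound for 90 minutes at 37° C., then 12 uM (final) 4-nitroquinoline N-oxide for 120 minutes. Lysates read for Chk1 p-Ser345 by AlphaScreen SureFire; IC50 from four-parameter logistic fit, normalized to DMSO (max) and 5 uM ATR inhibitor (min).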

[3] = read-out: ATR/ATRIP Enzyme IC50
[4] = Homo sapiens, HT-29, HT-29 cells
[5] = estimated range, read-out: ATR/ATRIP Enzyme IC50 (estimated class)

Sequence of ATR/ATRIP complex (Q13535 whole entry): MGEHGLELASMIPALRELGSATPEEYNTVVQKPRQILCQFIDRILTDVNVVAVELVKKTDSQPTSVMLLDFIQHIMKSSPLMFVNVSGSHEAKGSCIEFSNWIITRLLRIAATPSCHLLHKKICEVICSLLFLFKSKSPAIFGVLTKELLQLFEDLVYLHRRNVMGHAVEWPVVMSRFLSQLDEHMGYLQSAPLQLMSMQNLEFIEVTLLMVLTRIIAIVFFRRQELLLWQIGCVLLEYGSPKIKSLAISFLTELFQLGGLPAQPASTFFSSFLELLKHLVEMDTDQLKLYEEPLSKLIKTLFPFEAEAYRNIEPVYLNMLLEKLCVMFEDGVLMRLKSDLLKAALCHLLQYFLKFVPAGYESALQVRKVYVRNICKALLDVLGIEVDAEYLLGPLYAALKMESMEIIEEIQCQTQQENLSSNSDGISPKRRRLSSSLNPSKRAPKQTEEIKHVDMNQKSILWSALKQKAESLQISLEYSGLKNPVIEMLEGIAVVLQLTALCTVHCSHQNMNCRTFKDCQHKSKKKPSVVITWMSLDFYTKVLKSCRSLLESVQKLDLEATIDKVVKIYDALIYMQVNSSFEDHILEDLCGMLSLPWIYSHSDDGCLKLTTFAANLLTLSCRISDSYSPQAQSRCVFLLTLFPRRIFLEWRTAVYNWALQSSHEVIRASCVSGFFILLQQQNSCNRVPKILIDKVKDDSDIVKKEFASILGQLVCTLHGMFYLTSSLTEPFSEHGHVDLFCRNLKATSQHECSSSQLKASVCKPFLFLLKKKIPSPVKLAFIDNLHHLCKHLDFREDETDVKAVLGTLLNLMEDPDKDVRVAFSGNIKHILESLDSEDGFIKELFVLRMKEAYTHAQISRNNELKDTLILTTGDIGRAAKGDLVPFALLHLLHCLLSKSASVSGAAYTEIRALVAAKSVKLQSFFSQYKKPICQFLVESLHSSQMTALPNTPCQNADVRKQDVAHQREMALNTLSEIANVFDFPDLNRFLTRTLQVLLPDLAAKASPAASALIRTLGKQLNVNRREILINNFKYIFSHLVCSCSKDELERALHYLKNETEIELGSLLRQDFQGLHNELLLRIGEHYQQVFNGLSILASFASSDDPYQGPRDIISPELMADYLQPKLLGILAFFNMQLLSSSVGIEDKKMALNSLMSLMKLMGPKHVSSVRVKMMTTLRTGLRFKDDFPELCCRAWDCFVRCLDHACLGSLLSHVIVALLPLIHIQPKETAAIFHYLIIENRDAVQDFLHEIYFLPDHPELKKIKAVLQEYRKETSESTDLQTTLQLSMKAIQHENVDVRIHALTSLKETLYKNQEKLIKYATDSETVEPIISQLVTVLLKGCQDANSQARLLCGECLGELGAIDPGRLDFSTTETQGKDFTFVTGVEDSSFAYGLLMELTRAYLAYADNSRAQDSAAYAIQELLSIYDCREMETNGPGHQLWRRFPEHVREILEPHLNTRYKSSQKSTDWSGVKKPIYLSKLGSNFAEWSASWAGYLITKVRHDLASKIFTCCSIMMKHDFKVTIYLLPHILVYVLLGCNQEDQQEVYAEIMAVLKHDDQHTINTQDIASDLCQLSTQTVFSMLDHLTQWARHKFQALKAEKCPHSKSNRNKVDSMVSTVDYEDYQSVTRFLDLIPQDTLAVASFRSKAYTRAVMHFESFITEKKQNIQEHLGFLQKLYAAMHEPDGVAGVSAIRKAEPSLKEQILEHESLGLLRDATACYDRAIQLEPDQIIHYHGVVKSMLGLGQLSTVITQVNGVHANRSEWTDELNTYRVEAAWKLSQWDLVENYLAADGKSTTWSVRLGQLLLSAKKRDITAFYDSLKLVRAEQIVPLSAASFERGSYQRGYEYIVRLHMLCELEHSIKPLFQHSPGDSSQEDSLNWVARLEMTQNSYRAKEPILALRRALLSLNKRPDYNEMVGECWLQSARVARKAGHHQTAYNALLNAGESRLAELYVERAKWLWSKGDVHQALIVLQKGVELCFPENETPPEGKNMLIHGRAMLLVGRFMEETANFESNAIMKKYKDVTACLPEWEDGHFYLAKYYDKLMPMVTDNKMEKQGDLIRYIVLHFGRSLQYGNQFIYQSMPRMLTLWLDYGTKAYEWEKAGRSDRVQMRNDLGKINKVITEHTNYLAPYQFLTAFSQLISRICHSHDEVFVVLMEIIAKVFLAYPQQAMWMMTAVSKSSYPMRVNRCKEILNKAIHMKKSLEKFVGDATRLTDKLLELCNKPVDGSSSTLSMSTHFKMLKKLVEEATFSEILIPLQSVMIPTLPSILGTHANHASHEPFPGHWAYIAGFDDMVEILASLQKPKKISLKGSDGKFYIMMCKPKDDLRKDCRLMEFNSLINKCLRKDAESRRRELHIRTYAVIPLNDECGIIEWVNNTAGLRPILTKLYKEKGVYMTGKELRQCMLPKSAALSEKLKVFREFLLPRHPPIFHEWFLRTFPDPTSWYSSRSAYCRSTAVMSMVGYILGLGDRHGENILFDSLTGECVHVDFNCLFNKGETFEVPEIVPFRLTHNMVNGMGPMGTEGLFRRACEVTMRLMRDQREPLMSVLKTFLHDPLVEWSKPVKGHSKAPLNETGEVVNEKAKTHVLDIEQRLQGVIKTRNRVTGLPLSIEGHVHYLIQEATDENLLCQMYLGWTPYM
Sequence of ATR/ATRIP complex (Q8WXE1 whole entry partner): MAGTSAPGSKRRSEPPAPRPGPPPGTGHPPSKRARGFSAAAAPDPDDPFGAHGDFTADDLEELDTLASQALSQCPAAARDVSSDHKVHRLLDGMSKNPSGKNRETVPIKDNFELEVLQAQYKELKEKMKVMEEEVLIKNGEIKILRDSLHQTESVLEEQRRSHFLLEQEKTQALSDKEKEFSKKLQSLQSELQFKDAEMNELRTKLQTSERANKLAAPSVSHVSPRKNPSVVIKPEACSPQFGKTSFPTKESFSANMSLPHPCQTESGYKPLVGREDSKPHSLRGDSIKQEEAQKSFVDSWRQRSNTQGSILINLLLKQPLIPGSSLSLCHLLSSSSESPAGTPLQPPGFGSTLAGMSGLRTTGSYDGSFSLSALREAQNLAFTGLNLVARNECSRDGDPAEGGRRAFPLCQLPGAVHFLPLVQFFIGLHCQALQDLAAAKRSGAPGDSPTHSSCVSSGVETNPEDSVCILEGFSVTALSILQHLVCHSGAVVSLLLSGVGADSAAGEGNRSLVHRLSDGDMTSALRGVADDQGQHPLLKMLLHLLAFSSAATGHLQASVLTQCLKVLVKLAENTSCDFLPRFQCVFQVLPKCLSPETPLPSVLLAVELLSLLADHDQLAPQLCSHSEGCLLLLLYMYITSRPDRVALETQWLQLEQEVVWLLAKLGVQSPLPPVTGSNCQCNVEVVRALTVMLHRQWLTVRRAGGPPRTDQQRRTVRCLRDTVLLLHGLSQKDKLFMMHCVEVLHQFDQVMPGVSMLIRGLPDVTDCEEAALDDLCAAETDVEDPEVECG

| IC50 [1, 3] | IC50 [2, 4] | IC50 [1, 5] | Compound | IC50 ([2]; HT-29 cells) |
| --- | --- | --- | --- | --- |
| 246 nM | 34 nM | – | C[C@@H]1Cc2ncnc(N3CCC(O)(C4CC4)CC3)c2CN1c1cc(Cl)nc2[nH]ccc12 [Example 75, (R)-1-(6-(6-chloro-1H-pyrrolo[2,3-b]pyridin-4-yl)-7-methyl-5,6,7,8-tetrahydropyrido[4,3-d]pyrimidin-4-yl)-4-cyclopropylpiperidin-4-ol] | – |
| 183 nM | 15 nM | – | C[C@@H]1Cc2ncnc(N3CC(C(C)(C)O)C3)c2CN1c1cc(Cl)nc2[nH]ccc12 [Example 33, 2-{1-[(7R)-6-{6-chloro-1H-pyrrolo[2,3-b]pyridin-4-yl}-7-methyl-5H,6H,7H,8H-pyrido[4,3-d]pyrimidin-4-yl]azetidin-3-yl}propan-2-ol] | – |
| – | 1610 nM | 1000 to 10000 nM | CS(=O)(=O)c1cccc(-c2ncnc3c2CN(c2ccnc4[nH]ccc24)CC3)c1 [Example 14, 4-(3-methanesulfonyl-phenyl)-6-{1H-pyrrolo-[2,3-b]pyridin-4-yl}-5H,6H,7H,8H-pyrido [4,3-d]pyrimidine] | – |
| 434 nM | 72 nM | – | C[C@@H]1Cc2ncnc(N3CCC4(CC3)CNC(=O)O4)c2CN1c1cc(Cl)nc2[nH]ccc12 [Example 31, 8-[(7R)-6-{6-chloro-1H-pyrrolo[2,3-b]pyridin-4-yl}-7-methyl-5H,6H,7H,8H-pyrido[4,3-d]pyrimidin-4-yl]-1-oxa-3,8-diazaspiro[4.5]decan-2-one] | – |
| 514 nM | 570 nM | – | C[C@@H]1Cc2ncnc(N3CCC4(CC3)NC(=O)NC4=O)c2CN1c1cc(Cl)nc2[nH]ccc12 [Example 61, (R)-8-(6-(6-chloro-1H-pyrrolo[2,3-b]pyridin-4-yl)-7-methyl-5,6,7,8-tetrahydropyrido[4,3-d]pyrimidin-4-yl)-1,3,8-triazaspiro[4.5]decane-2,4-dione] | – |
| – | 611 nM | 1000 to 10000 nM | C[C@@H]1Cc2ncnc(C3CCN(S(C)(=O)=O)CC3)c2CN1c1ncnc2[nH]ccc12 [Example 23, 1-methanesulfonyl-4-[(7R)-7-methyl-6-{7H-pyrrolo[2,3-d]pyrimidin-4-yl}-5H,6H,7H,8H-pyrido[4,3-d]pyrimidin-4-yl]piperidine] | – |
| – | 56 nM | 1000 to 10000 nM | C[C@@H]1Cc2ncnc(N3CCC34CN(S(C)(=O)=O)C4)c2CN1c1cc(Cl)nc2[nH]ccc12 [Example 37, (R)-6-(6-chloro-1H-pyrrolo[2,3-b]pyridin-4-yl)-7-methyl-4-(6-(methylsulfonyl)-1,6-diazaspiro[3.3]heptan-1-yl)-5,6,7,8-tetrahydropyrido[4,3-d] pyrimidine] | – |
| 2420 nM | – | – | CS(=O)(=O)N1CCC(c2ncnc3c2CN(c2ccnc4[nH]ccc24)[C@H](C(F)F)C3)CC1 [Example 53b] | 485 nM |
| 114 nM | 29 nM | – | C[C@@H]1Cc2ncnc(N3C[C@H]4CC[C@@H](C3)C4NS(C)(=O)=O)c2CN1c1cc(Cl)nc2[nH]ccc12 (stereo partly drawn) [Example 13, N-((1R,5S)-3-((R)-6-(6-Chloro-1H-pyrrolo[2,3-b]pyridin-4-yl)-7-methyl-5,6,7,8-tetrahydropyrido[4,3-d]pyrimidin-4-yl)-3-azabicyclo[3.2.]octan-8-yl)methanesulfonamide] | – |
| 51 nM | 98 nM | – | Cc1cc2c(N3Cc4c(ncnc4C4CCN(S(C)(=O)=O)CC4)C[C@H]3C)ccnc2[nH]1 [Example 94, (R)-7-methyl-6-(2-methyl-1H-pyrrolo[2,3-b]pyridin-4-yl)-4-(1-(methylsulfonyl)piperidin-4-yl)-5,6,7,8-tetrahydro-pyrido[4,3-d]pyrimidine] | – |
| 123 nM | 10 nM | – | CCOc1cc(N2Cc3c(ncnc3C3CCN(S(C)(=O)=O)CC3)C[C@H]2C)c2cc[nH]c2n1 [Example 54, (R)-6-(6-ethoxy-1H-pyrrolo[2,3-b]pyridin-4-yl)-7-methyl-4-(1-(methylsulfonyl)piperidin-4-yl)-5,6,7,8-tetrahydropyrido[4,3-d]pyrimidine] | – |
| 30000 nM | 10000 nM | – | CS(=O)(=O)N1CCC(c2ncnc3c2CN(c2ccnc4[nH]ccc24)[C@@H](CF)C3)CC1 [Example 52a, (R)-7-(fluoromethyl)-4-(1-(methylsulfonyl)piperidin-4-yl)-6-(1H-pyrrolo[2,3-b]pyridin-4-yl)-5,6,7,8-tetrahydropyrido[4,3-d]pyrimidine] | – |
| 840 nM | 183 nM | – | C[C@@H]1Cc2ncnc([C@@H]3CCN(S(C)(=O)=O)C3)c2CN1c1ccnc2[nH]ccc12 [Example 57a, (R)-7-methyl-4-((R)-1-(methylsulfonyl)pyrrolidin-3-yl)-6-(1H-pyrrolo[2,3-b]pyridin-4-yl)-5,6,7,8-tetrahydropyrido[4,3-d]pyrimidine] | – |
| 3600 nM | 654 nM | – | C[C@@H]1Cc2ncnc(C3CCN(C(=O)C(C)(C)O)CC3)c2CN1c1ccnc2[nH]ccc12 [Example 49, (R)-2-Hydroxy-2-methyl-1-(4-(7-methyl-6-(1H-pyrrolo[2,3-b]pyridin-4-yl)-5,6,7,8-tetrahydropyrido[4,3-d]pyrimidin-4-yl)piperidin-1-yl)propan-1-one] | – |
| 103 nM | 14 nM | – | C[C@@H]1Cc2ncnc(N3CC(C#N)C3)c2CN1c1cc(Cl)nc2[nH]ccc12 [Example 79, (R)-1-(6-(6-chloro-1H-pyrrolo[2,3-b]pyridin-4-yl)-7-methyl-5,6,7,8-tetrahydropyrido[4,3-d]-pyrimidin-4-yl)azetidine-3-carbonitrile] | – |
| 899 nM | 28 nM | – | COC(=O)N1CCC(c2ncnc3c2CN(c2cc(Cl)nc4[nH]ccc24)[C@H](C)C3)CC1 [Example 25, methyl 4-[(7R)-6-{6-chloro-1H-pyrrolo[2,3-b]pyridin-4-yl}-7-methyl-5H,6H,7H,8H-pyrido [4,3-d]pyrimidin-4-yl]piperidine-1-carboxylate] | – |
| – | 3010 nM | 1000 to 10000 nM | C[C@@H]1Cc2ncnc(C3CCN(S(C)(=O)=O)CC3)c2CN1c1ccnc2[nH]ncc12 [Example 42, (R)-7-methyl-4-(1-(methylsulfonyl)piperidin-4-yl)-6-(1H-pyrazolo[3,4-b]pyridin-4-yl)-5,6,7,8-tetrahydropyrido[4,3-d] pyrimidine] | – |
| – | 1940 nM | 1000 to 10000 nM | CS(=O)(=O)N1CCC(c2ncnc3c2CN(c2ccnc4[nH]ccc24)CC3)CC1 [Example 2, 4-(1-(Methylsulfonyl)piperidin-4-yl)-6-(1H-pyrrolo[2,3-b]pyridin-4-yl)-5,6,7,8-tetrahydropyrido[4,3-d]pyrimidine bis(trifluoroacetate)] | – |
| – | 1880 nM | 1000 to 10000 nM | CS(=O)(=O)c1ccc(-c2ncnc3c2CN(c2ccnc4[nH]ccc24)CC3)cc1 [Example 1, 4-(4-(Methylsulfonyl)phenyl)-6-(1H-pyrrolo[2,3-b]pyridin-4-yl)-5,6,7,8-tetrahydropyrido[4,3-d]pyrimidine bis(trifluoroacetate)] | – |

| Compound | IC50 [1, 3] | IC50 [2, 4] | IC50 [1, 5] | IC50 ([2]; HT-29 cells) |
| --- | --- | --- | --- | --- |
| C[C@@H]1Cc2ncnc(N3CCC(S(C)(=O)=O)CC3)c2CN1c1cc(Cl)nc2[nH]ccc12 [Example 9, (R)-6-(6-Chloro-1H-pyrrolo[2,3-b]pyridin-4-yl)-7-methyl-4-(4-(methylsulfonyl)-piperidin-1-yl)-5,6,7,8-tetrahydropyrido[4,3-d]pyrimidine bis(trifluoroacetate)] | 442 nM | 25 nM | – | – |
| C[C@@H]1Cc2ncnc(C3C[C@H]4CC[C@@H](C3)N4S(C)(=O)=O)c2CN1c1cc(Cl)nc2[nH]ccc12 (single isomer, unassigned) [Example 11a] | 555 nM | – | – | 28 nM |
